Results published in US10815226B2, “Heteroaryl compounds as inhibitors of necrosis, composition and application thereof” (ACCRO BIOSCIENCE INC., priority 2016, dated 2020).

Experiments:
[1] = tested on: HT29 cells; assay: HT29 cell necroptosis assay (TNF-α/Smac mimetic/z-VAD induced necrosis, viability); assay type: cell-based, human; conditions: 10 μM test compound pretreated one hour, TNF-α (40 ng/mL), Smacmimetic (100 nM), z-VAD (20 μM) for 48 hours
Method: Biological in Vitro HT29 Cell Assay.
The efficacies of RIP1 inhibitors were tested in vitro using human colon cancer TH29 cells in a necroptosis assay. For the assay, Cells were added to 96-well plates and then 10 μM of the test compound was pretreated for one hour. Then the cells were treated with TNF-α (40 ng/mL), Smacmimetic (100 nM) and z-VAD (20 μM) for 48 hours, and the viability was quantified. DMSO pretreatment group was negative control, Nec-1 pretreatment group was positive control.

[2] = tested on: L929 cells; assay: L929 cell necroptosis assay (same protocol as the HT29 cell assay); assay type: cell-based, mouse; conditions: 10 μM test compound, protocol as HT29 assay
Method: The efficacies of RIP1 inhibitors were tested in vitro using human colon cancer TH29 cells in a necroptosis assay. […] Then the cells were treated with TNF-α (40 ng/mL), Smacmimetic (100 nM) and z-VAD (20 μM) for 48 hours, and the viability was quantified. DMSO pretreatment group was negative control, Nec-1 pretreatment group was positive control.
Biological In Vitro L929 Cell Assay.
Mouse L-cells NCTC 929 (L929) were acquired from ATCC (cat. no. ATCC CCL-1) and banked in liquid nitrogen. The assay protocol was the same as described for the HT29 cell assay.

[3] = tested on: HT29 cells; assay: HT29 cell necroptosis assay (TNF-α/Smac mimetic/z-VAD induced necrosis, viability); assay type: cell-based, human; conditions: Homo sapiens, HT-29, HT29 cells, TNF-α/Smacmimetic/z-VAD induced necrosis

SMILES	HT29 Inhibition (10 μM) [1]	L929 Inhibition (10 μM) [2]	IC50 ([3]; values given in μM)	IC50 ([3]; values in nM)
CC(=O)Nc1nc2ccc(-c3cncc(NC(=O)Cc4ccccc4Cl)c3)cc2s1 [Compound A13]	80%	94%	5.24 µM	
CC(=O)Nc1nc2ccc(-c3cnc(Cl)c(NC(=O)Cc4ccccc4)c3)cc2s1 [Compound A21]	28%	42%	16.5 µM	
CC(=O)Nc1nc2ccc(-c3cnc(C)c(NC(=O)Cc4ccccc4)c3)cc2s1 [Compound A23]	104%	42%		0.67 µM
CC(=O)Nc1nc2ccc(-c3cnc(Cl)c(NC(=O)Cc4ccccc4Cl)c3)cc2s1 [Compound A24]	113%	42%		0.527 µM
